From patent US8003660B2, “Modulators of muscarinic receptors” (Vertex Pharmaceuticals Incorporated, priority 2006, dated 2011) come the findings set out here.

Usually EC50 stands for the concentration needed to bring the measured effect to its halfway point.

What all share (format): cell-based
One test addresses T1, M4 muscarinic receptor (Homo sapiens, UniProt P08173).
T1 construct: expressed in transfected cells; host or cells: CHO (M4-CHO)
T1 sequence (P08173 1-479): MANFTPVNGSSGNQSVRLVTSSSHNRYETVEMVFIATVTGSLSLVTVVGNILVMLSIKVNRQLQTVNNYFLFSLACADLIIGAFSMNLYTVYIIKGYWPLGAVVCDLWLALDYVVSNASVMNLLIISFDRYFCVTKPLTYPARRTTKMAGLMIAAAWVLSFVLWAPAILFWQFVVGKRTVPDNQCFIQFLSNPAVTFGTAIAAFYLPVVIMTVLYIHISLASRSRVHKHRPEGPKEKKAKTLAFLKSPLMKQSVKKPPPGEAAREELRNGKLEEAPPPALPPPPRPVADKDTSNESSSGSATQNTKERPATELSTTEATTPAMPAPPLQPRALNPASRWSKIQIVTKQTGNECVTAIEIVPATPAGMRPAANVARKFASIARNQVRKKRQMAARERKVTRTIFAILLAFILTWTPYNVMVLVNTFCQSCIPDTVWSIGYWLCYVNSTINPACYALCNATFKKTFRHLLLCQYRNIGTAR
Kind of test: Functional mobilization of intracellular calcium (FLIPR) in CHO cells expressing M4. As to conditions: for EC50: CHO cells expressing M4, FLIPR calcium; for Emax: CHO, 100% = maximum response obtained with the Carbachol control, read-out: M4 Efficacy. Put shortly: (§1)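 Recombinant CHO cells loaded with Fluo-3 AM or Calcium 3 dye in pH 7.4 buffer containing 1 mM probenecid, with 0.5% final DMSO. For agonism, compound is added directly. For inhibition, it is preincubated 15 min, or co-applied, before carbachol at EC80. FLIPR fluorescence (ex 488, em 540 nm) is recorded for 60 s.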
For orientation: Calcium flux is commonly read through the fluorescence of an indicator in the cells.

A further test deals with T2, M1 muscarinic receptor (Homo sapiens, UniProt P11229).
T2 construct: expressed in transfected cells; host or cells: CHO (M1-CHO)
T2 sequence (P11229 1-460): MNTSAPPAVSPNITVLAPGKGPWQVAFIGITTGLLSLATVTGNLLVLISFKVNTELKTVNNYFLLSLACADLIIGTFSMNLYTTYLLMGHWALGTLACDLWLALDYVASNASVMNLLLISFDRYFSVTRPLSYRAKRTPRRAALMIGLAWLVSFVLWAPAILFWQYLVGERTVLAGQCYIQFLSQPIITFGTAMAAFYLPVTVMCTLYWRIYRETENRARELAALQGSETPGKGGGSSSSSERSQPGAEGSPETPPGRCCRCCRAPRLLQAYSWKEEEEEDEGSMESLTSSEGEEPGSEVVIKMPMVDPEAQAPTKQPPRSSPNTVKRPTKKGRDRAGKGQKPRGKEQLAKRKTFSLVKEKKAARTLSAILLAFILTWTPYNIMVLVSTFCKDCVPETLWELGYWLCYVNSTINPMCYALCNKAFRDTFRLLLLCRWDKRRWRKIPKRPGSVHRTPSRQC
Put plainly: Functional mobilization of intracellular calcium (FLIPR) in CHO cells expressing M1. Conditions: for EC50: CHO cells expressing M1, FLIPR calcium; for Emax: CHO, 100% = maximum response obtained with the Carbachol control, read-out: M1 Efficacy. The procedure, abridged:
as §1

The target in the next test is T3, M3 muscarinic receptor (Homo sapiens, UniProt P20309).
T3 construct: expressed in transfected cells; host or cells: CHO (M3-CHO)
Put plainly: Functional mobilization of intracellular calcium (FLIPR) in CHO cells expressing M3. As to conditions: for EC50: CHO cells expressing M3, FLIPR calcium; for Emax: CHO, 100% = maximum response obtained with the Carbachol control, read-out: M3 Efficacy. The procedure, abridged:
as §1

For the next test, the target named is T4, M2 muscarinic receptor (Homo sapiens, UniProt P08172).
T4 construct: expressed in transfected cells; host or cells: CHO (M2-CHO)
T4 sequence (P08172 1-466): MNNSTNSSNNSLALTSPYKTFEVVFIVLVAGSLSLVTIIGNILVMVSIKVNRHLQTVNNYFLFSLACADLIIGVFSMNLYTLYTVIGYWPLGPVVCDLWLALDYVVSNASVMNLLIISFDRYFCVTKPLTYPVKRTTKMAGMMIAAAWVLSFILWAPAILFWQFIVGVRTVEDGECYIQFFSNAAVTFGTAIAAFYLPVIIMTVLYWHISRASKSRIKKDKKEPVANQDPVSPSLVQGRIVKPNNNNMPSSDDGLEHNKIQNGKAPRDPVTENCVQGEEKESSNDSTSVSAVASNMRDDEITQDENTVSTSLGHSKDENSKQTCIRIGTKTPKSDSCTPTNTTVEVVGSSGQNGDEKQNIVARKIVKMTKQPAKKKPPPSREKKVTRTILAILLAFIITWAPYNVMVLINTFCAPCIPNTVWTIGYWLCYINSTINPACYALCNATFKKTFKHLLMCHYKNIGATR
Kind of test: Functional mobilization of intracellular calcium (FLIPR) in CHO cells expressing M2. Conditions: for EC50: CHO cells expressing M2, FLIPR calcium; for Emax: CHO, 100% = maximum response obtained with the Carbachol control, read-out: M2 Efficacy. The procedure, abridged: as §1

T3 sequence (P20309 whole entry): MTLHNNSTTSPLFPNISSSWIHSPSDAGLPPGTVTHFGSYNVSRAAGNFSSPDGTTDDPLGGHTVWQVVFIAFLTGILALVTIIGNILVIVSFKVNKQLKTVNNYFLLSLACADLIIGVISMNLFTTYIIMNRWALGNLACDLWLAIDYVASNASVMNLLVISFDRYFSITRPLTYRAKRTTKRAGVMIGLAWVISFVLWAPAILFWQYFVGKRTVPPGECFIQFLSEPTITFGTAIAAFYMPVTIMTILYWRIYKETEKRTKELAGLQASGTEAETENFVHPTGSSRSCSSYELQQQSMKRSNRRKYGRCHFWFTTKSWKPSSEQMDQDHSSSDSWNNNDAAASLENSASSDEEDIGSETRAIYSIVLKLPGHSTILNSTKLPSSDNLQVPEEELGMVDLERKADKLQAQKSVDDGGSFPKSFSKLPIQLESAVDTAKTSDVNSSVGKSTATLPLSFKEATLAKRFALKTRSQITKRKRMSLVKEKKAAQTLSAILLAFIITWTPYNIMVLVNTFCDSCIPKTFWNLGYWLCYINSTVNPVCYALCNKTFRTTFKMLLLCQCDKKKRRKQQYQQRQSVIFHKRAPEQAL

For `CCN(C(=O)[C@@H](C)OC)[C@H]1CCC2(CCN(CCC(C)(C)C)CC2)c2ccccc21` [compound 116], the EC50 was under 2 µM at M4 muscarinic receptor, over 5 µM at M1 muscarinic receptor, over 5 µM at M3 muscarinic receptor and over 5 µM on M2 muscarinic receptor. The Emax is 25 to 100% at M4 muscarinic receptor, 25 to 100% on M1 muscarinic receptor, under 25% at M3 muscarinic receptor and under 25% at M2 muscarinic receptor.

`CC(C)(C)CCN1CCC2(CC1)CC(F)(F)C(=O)c1ccccc12` [compound 117]: the 50% effective concentration (EC50) was under 2 µM at M4 muscarinic receptor, under 2 µM at M1 muscarinic receptor, over 5 µM on M3 muscarinic receptor and under 2 µM at M2 muscarinic receptor. The Emax on M4 muscarinic receptor is 25 to 100%; on M1 muscarinic receptor, 25 to 100%; on M3 muscarinic receptor it was under 25%; on M2 muscarinic receptor it was 25 to 100%.

Turning to `Cn1cncc1C(=O)N[C@@H]1CCC2(CCN(CCC(C)(C)C)CC2)c2ccccc21` [compound 118], the EC50 at M4 muscarinic receptor was under 2 µM; at M1 muscarinic receptor it was 2 to 5 µM; at M3 muscarinic receptor, over 5 µM; at M2 muscarinic receptor, over 5 µM. The Emax at M4 muscarinic receptor is 25 to 100%; on M1 muscarinic receptor, 25 to 100%; on M3 muscarinic receptor it was under 25%; on M2 muscarinic receptor, under 25%.

Turning to `CC(C)(C)CCN1CCC2(CC[C@H](NC(=O)C3CC3)c3ccc(F)cc32)CC1` [compound 119], the concentration for a half-maximal effect (EC50) on M4 muscarinic receptor was under 2 µM; at M1 muscarinic receptor, under 2 µM; on M3 muscarinic receptor, over 5 µM; on M2 muscarinic receptor it was under 2 µM. Besides, the Emax at M4 muscarinic receptor is 25 to 100%; at M1 muscarinic receptor, 25 to 100%; on M3 muscarinic receptor, under 25%; at M2 muscarinic receptor, 25 to 100%.

For the compound `CC(C)(C)CCN1CCC2(CC1)CC(F)(F)C(O)c1ccccc12` (stereo not shown) [compound 120], the EC50 is under 2 µM on M4 muscarinic receptor, under 2 µM on M1 muscarinic receptor, over 5 µM on M3 muscarinic receptor and under 2 µM on M2 muscarinic receptor. For the same compound, the Emax on M4 muscarinic receptor was 25 to 100%; at M1 muscarinic receptor, 25 to 100%; at M3 muscarinic receptor, under 25%; at M2 muscarinic receptor it was 25 to 100%.

For the compound `CC(=O)N1CCCC(C(=O)N[C@H]2CCC3(CCN(CCC(C)(C)C)CC3)c3ccccc32)C1` (stereo partly shown) [compound 121], the half-maximal effective concentration (EC50) was under 2 µM on M4 muscarinic receptor, under 2 µM at M1 muscarinic receptor, over 5 µM on M3 muscarinic receptor and over 5 µM on M2 muscarinic receptor. Further, the Emax was 25 to 100% at M4 muscarinic receptor, 25 to 100% at M1 muscarinic receptor, under 25% on M3 muscarinic receptor and under 25% at M2 muscarinic receptor.

As to `CC(=O)N(C1CC1)C1CCC2(CCN(CCC(C)(C)C)CC2)c2ccccc21` (stereo not shown) [compound 122], the EC50 on M4 muscarinic receptor is under 2 µM; at M1 muscarinic receptor, under 2 µM; on M3 muscarinic receptor it was over 5 µM; on M2 muscarinic receptor, over 5 µM. Moreover, the Emax on M4 muscarinic receptor was 25 to 100%; on M1 muscarinic receptor it was 25 to 100%; on M3 muscarinic receptor, under 25%; on M2 muscarinic receptor it was under 25%.

For the compound `CC(=O)N(C)[C@H]1CCC2(CCN(CCC(C)(C)C)CC2)c2ccccc21` [compound 123], the concentration giving a half-maximal response (EC50) on M4 muscarinic receptor was under 2 µM; on M1 muscarinic receptor, under 2 µM; on M3 muscarinic receptor, over 5 µM; on M2 muscarinic receptor, over 5 µM. For the same compound, the Emax was 25 to 100% at M4 muscarinic receptor, 25 to 100% on M1 muscarinic receptor, under 25% at M3 muscarinic receptor and under 25% at M2 muscarinic receptor.

For the compound `CC(C)(C)CCN1CCC2(CC[C@H](NC(=O)CCN3CCCC3=O)c3ccccc32)CC1` [compound 124], the EC50 on M4 muscarinic receptor was under 2 µM; on M1 muscarinic receptor, under 2 µM; on M3 muscarinic receptor, over 5 µM; at M2 muscarinic receptor, under 2 µM. Besides, the Emax is 25 to 100% at M4 muscarinic receptor, 25 to 100% on M1 muscarinic receptor, under 25% on M3 muscarinic receptor and 25 to 100% at M2 muscarinic receptor.

Regarding `CC(C)CCN1CCC2(CC[C@H](NC(=O)C3CC3)c3ccccc32)CC1` [compound 125], the EC50 on M4 muscarinic receptor was under 2 µM; at M1 muscarinic receptor it was under 2 µM; at M3 muscarinic receptor, over 5 µM; at M2 muscarinic receptor it was 2 to 5 µM. The Emax at M4 muscarinic receptor is 25 to 100%; on M1 muscarinic receptor it was 25 to 100%; on M3 muscarinic receptor, under 25%; on M2 muscarinic receptor, under 25%.

Turning to `CC(C)[C@@H](C(=O)N[C@@H]1CCC2(CCN(CCC(C)(C)C)CC2)c2ccccc21)N1CCCC1=O` [compound 126], the concentration for a half-maximal effect (EC50) on M4 muscarinic receptor is under 2 µM; on M1 muscarinic receptor, over 5 µM; on M3 muscarinic receptor, over 5 µM; at M2 muscarinic receptor, over 5 µM. In addition, the Emax on M4 muscarinic receptor is 25 to 100%; on M1 muscarinic receptor, under 25%; at M3 muscarinic receptor, under 25%; at M2 muscarinic receptor, under 25%.

`CCN(C(=O)CCC(=O)NC)[C@H]1CCC2(CCN(CCC(C)(C)C)CC2)c2ccccc21` [compound 127]: the concentration for a half-maximal effect (EC50) on M4 muscarinic receptor is under 2 µM; on M1 muscarinic receptor, under 2 µM; at M3 muscarinic receptor, over 5 µM; on M2 muscarinic receptor it was 2 to 5 µM. Also, the Emax is 25 to 100% on M4 muscarinic receptor, 25 to 100% on M1 muscarinic receptor, under 25% on M3 muscarinic receptor and under 25% on M2 muscarinic receptor.

As to `CCN(C(=O)c1cncn1C)[C@H]1CCC2(CCN(CCC(C)(C)C)CC2)c2ccccc21` [compound 128], the half-maximal effective concentration (EC50) was under 2 µM on M4 muscarinic receptor, 2 to 5 µM at M1 muscarinic receptor, over 5 µM at M3 muscarinic receptor and over 5 µM on M2 muscarinic receptor. In addition, the Emax on M4 muscarinic receptor was 25 to 100%; at M1 muscarinic receptor, 25 to 100%; on M3 muscarinic receptor it was under 25%; on M2 muscarinic receptor, under 25%.

For the compound `Cn1cc(C(=O)N[C@@H]2CCC3(CCN(CCC(C)(C)C)CC3)c3ccccc32)cn1` [compound 129], the EC50 is under 2 µM on M4 muscarinic receptor, over 5 µM at M1 muscarinic receptor, over 5 µM at M3 muscarinic receptor and over 5 µM at M2 muscarinic receptor. Moreover, the Emax at M4 muscarinic receptor was 25 to 100%; on M1 muscarinic receptor it was under 25%; on M3 muscarinic receptor, under 25%; on M2 muscarinic receptor it was under 25%.

Take `CC(=O)N1CCC(C(=O)N(C)[C@H]2CCC3(CCN(CCC(C)(C)C)CC3)c3ccccc32)CC1` [compound 132]: the EC50 at M4 muscarinic receptor is under 2 µM; at M1 muscarinic receptor it was 2 to 5 µM; at M3 muscarinic receptor, over 5 µM; at M2 muscarinic receptor, over 5 µM. Moreover, the Emax at M4 muscarinic receptor is 25 to 100%; at M1 muscarinic receptor, 25 to 100%; at M3 muscarinic receptor it was under 25%; on M2 muscarinic receptor it was under 25%.

`CC(C)(C)CCN1CCC2(CC[C@@H](NC(=O)C3CCCO3)c3ccc(F)cc32)CC1` (stereo partly shown) [compound 133]: the 50% effective concentration (EC50) was under 2 µM at M4 muscarinic receptor, under 2 µM at M1 muscarinic receptor, over 5 µM on M3 muscarinic receptor and under 2 µM at M2 muscarinic receptor. The Emax at M4 muscarinic receptor is 25 to 100%; at M1 muscarinic receptor, 25 to 100%; on M3 muscarinic receptor, under 25%; at M2 muscarinic receptor, 25 to 100%.

Regarding `CC(C)(C)CCN1CCC2(CC[C@@H](NC(=O)Cc3cccnc3)c3ccccc32)CC1` [compound 134], the EC50 at M4 muscarinic receptor is under 2 µM; on M1 muscarinic receptor, over 5 µM; at M3 muscarinic receptor it was over 5 µM; at M2 muscarinic receptor it was over 5 µM. The Emax at M4 muscarinic receptor is 25 to 100%; on M1 muscarinic receptor, under 25%; on M3 muscarinic receptor it was under 25%; at M2 muscarinic receptor it was under 25%.
